In the NIST ThermoML archive (doi:10.1021/je100610v):

Key:
[1] = 101 kPa, Liquid; for speed of sound: Pulse-echo method
[2] = molar heat capacity at constant pressure; details: 101 kPa, Liquid
[3] = xn = mol fraction of the nth substance listed; details: 101 kPa, Liquid, x2 = 0; for speed of sound: Pulse-echo method

ClCCCCCCCl [1,6-dichlorohexane]
Details	mass density [kg/m3]	molar heat capacity at constant pressure [J/K/mol]	speed of sound [m/s]
[1], 293.01 K	–	–	1337.8
[1], 293.15 K	1068.33	–	–
[1], 298.15 K	1063.61	–	–
[1], 298.18 K	–	–	1319.7
[1], 303.15 K	1058.87	–	1302.4
[1], 308.14 K	–	–	1285
[1], 308.15 K	1054.14	–	–
[1], 313.15 K	1049.39	–	–
[1], 313.23 K	–	–	1267.4
[2], 293.15 K	–	239.21	–
[2], 294.15 K	–	239.5	–
[2], 295.15 K	–	239.69	–
[2], 296.15 K	–	240.02	–
[2], 297.15 K	–	240.35	–
[2], 298.15 K	–	240.64	–
[2], 299.15 K	–	240.85	–
[2], 300.15 K	–	241.15	–
[2], 301.15 K	–	241.46	–
[2], 302.15 K	–	241.8	–
[2], 303.15 K	–	242.06	–
[2], 304.15 K	–	242.34	–
[2], 305.15 K	–	242.62	–
[2], 306.15 K	–	242.83	–
[2], 307.15 K	–	243.21	–
[2], 308.15 K	–	243.49	–
[2], 309.15 K	–	243.73	–
[2], 310.15 K	–	244	–
[2], 311.15 K	–	244.35	–
[2], 312.15 K	–	244.68	–
[2], 313.15 K	–	244.91	–

CCCCCCC [heptane]
[1]
Details	mass density [kg/m3]	speed of sound [m/s]
292.7 K	–	1154.1
293.15 K	683.79	–
298 K	–	1131.1
298.15 K	679.56	–
302.98 K	–	1109.5
303.15 K	675.3	–
308.06 K	–	1087.4
308.15 K	671.02	–
313.15 K	666.71	–
313.45 K	–	1064.3

CCCCCCC [heptane] + ClCCCCCCCl
[3]
Details	mass density [kg/m3]	speed of sound [m/s]
292.7 K	–	1154.1
293.15 K	683.79	–
298 K	–	1131.1
298.15 K	679.56	–
302.98 K	–	1109.5
303.15 K	675.3	–
308.06 K	–	1087.4
308.15 K	671.02	–
313.15 K	666.71	–
313.45 K	–	1064.3
